Assay results as given in patent publication US20230372221A1, “USE OF THIOPYRIDINONE COMPOUNDS FOR PREVENTING THE FORMATION OF CUTANEOUS BLACKHEADS” (L'OREAL, priority 2020, published 2023).

System: oxidation of the L-DOPA under the action of the bacterial extract (intracellular extract of Cutibacterium acnes CIP 53.117)
Test: In vitro evaluation of the ability to inhibit the development of the colour (absorbance at 475 nm of L-DOPA + Cutibacterium acnes extract)
Format: biochemical
Details: for inhibiting the development of the colour (result in words): compared with Reference (absence of treatment); for optical density at 475 nm: 32° C.; for % inhib (percentage of inhibition of the formation of the coloured product): from initial rate of oxidation between 10 and 40 minutes vs reference composition
Excerpt: This method is based on the measurement of absorbance, over time, carried out directly on a composition formed of a mixture of intracellular extract of bacteria of Cutibacterium acnes type, of 3,4-dihydroxy-L-phenylalanine (L-DOPA) and of a test compound. The measurements are compared with those carried out for a mixture of an intracellular extract of bacteria of Cutibacterium acnes type and of 3,4-dihydroxy-L-phenylalanine (L-DOPA), in the absence of test compound (reference). The method is adapted from a method for the enzymatic assay of the tyrosinase activity (Behbahani et al., Microchemical Journal (1993), 47, 251), which is based on the absorbance properties at 475 nm of a coloured intermediate of the pathway for the biosynthesis of melanin starting from L-DOPA, namely dopachrome, a product of the oxidation of L-DOPA. An intracellular extract of bacteria of Cutibacterium acnes CIP 53.117 type stored at 4° C. in the lyophilized form is suspended in 1×PBS (supplied by Gibco BRL Life Technologies) at a concentration of 6 mg/ml. A solution of L-DOPA at a concentration of 0.5 mg/ml is prepared by bringing together L-DOPA (supplied by Sigma-Aldrich) and milliQ water, so as to have an L-DOPA concentration of 1 mg/ml, then diluting with 1×PBS (Dulbecco's Phosphate Buffered Saline, supplied by Gibco BRL Life Technologies). The mixture of 50 μl of these two solutions and of 100 μl of 1×PBS (Dulbecco's Phosphate Buffered Saline, supplied by Gibco BRL Life Technologies) results in a composition with a total volume of 200 μl containing L-DOPA (at a concentration of 125 μg/ml) and Cutibacterium acnes extract (at a concentration of 1.5 mg/ml). The test compositions and the reference composition are introduced separately into wells of a 96-well microplate suitable for reading in visible spectrophotometry, and placed at a temperature of 32° C. The formation of a coloured product is monitored over time by spectrophotometry. To do this, the absorbance, or optical density (O.D.), is measured at 475 nm from the time 0 to the time 2 hours by means of a Spectra Max M5e reader and the Spectra Max software (the time 0 corresponds to the introduction of the composition into the wells). The ability to inhibit the development of the colour of a given compound was assessed by comparing the absorbance measurements obtained for the test compositions with those obtained for the reference composition. More specifically, the inhibitory effect of the test compound was evaluated by comparing the initial rate of oxidation of the L-DOPA under the action of the bacterial extract at 475 nm for the test composition with that of the reference composition in order to obtain a corresponding percentage of inhibition. In practice, the initial rate (Vi) of the oxidation reaction is calculated from the linear part of the curve of the graph of the absorbance values. As this part lies between 10 and 40 minutes (see the graph in FIG. 1), the initial rate of the oxidation reaction is determined using the following relationship: [formula] The percentage of inhibition (% inhib) of a given compound with regard to the formation of the coloured product is subsequently obtained using the values of the initial rate of the oxidation reaction for the reference composition (Viref) and for the test composition ([…]) according to the following relationship: [formula] Within the meaning of the invention, a compound is regarded as having an inhibitory effect if the % inhib value is at least 15%.

[1] = test compound 100 μM, duration 0 minutes
[2] = test compound 100 μM, duration 10 minutes
[3] = test compound 100 μM, duration 20 minutes
[4] = test compound 100 μM, duration 30 minutes
[5] = test compound 100 μM, duration 40 minutes
[6] = test compound 100 μM, duration 60 minutes
[7] = test compound 100 μM, duration 80 minutes
[8] = test compound 100 μM, duration 100 minutes
[9] = test compound 100 μM, duration 120 minutes

Q: Which results are given for CCOC(=O)CNC(=O)c1ccc[nH]c1=S [Compound 5, Ethyl N-[(2-thioxo-1,2-dihydropyridin-3-yl)carbonyl]glycinate]?
A: inhibiting the development of the colour (result in words): very effective; optical density at 475 nm (test compound 12.5 μM, duration 0 minutes): 0.0531; optical density at 475 nm (test compound 12.5 μM, duration 10 minutes): 0.0535; optical density at 475 nm (test compound 12.5 μM, duration 20 minutes): 0.0550; optical density at 475 nm (test compound 12.5 μM, duration 30 minutes): 0.0559; optical density at 475 nm (test compound 12.5 μM, duration 40 minutes): 0.0572; optical density at 475 nm (test compound 12.5 μM, duration 60 minutes): 0.0601; optical density at 475 nm (test compound 12.5 μM, duration 80 minutes): 0.0636; optical density at 475 nm (test compound 12.5 μM, duration 100 minutes): 0.0659; optical density at 475 nm (test compound 12.5 μM, duration 120 minutes): 0.0674; % inhib (percentage of inhibition of the formation of the coloured product) (test compound 12.5 μM): 57%; optical density at 475 nm (test compound 25 μM, duration 0 minutes): 0.0559; optical density at 475 nm (test compound 25 μM, duration 10 minutes): 0.0567; optical density at 475 nm (test compound 25 μM, duration 20 minutes): 0.0572; optical density at 475 nm (test compound 25 μM, duration 30 minutes): 0.0575; optical density at 475 nm (test compound 25 μM, duration 40 minutes): 0.0578; optical density at 475 nm (test compound 25 μM, duration 60 minutes): 0.0588; optical density at 475 nm (test compound 25 μM, duration 80 minutes): 0.0602; optical density at 475 nm (test compound 25 μM, duration 100 minutes): 0.0627; optical density at 475 nm (test compound 25 μM, duration 120 minutes): 0.0651; % inhib (percentage of inhibition of the formation of the coloured product) (test compound 25 μM): 87%; optical density at 475 nm (test compound 50 μM, duration 0 minutes): 0.0539; optical density at 475 nm (test compound 50 μM, duration 10 minutes): 0.0554; optical density at 475 nm (test compound 50 μM, duration 20 minutes): 0.0557; optical density at 475 nm (test compound 50 μM, duration 30 minutes): 0.0560; optical density at 475 nm (test compound 50 μM, duration 40 minutes): 0.0565; optical density at 475 nm (test compound 50 μM, duration 60 minutes): 0.0573; optical density at 475 nm (test compound 50 μM, duration 80 minutes): 0.0579; optical density at 475 nm (test compound 50 μM, duration 100 minutes): 0.0585; optical density at 475 nm (test compound 50 μM, duration 120 minutes): 0.0593; % inhib (percentage of inhibition of the formation of the coloured product) (test compound 50 μM): 87%; optical density at 475 nm [1]: 0.0532; optical density at 475 nm [2]: 0.0534; optical density at 475 nm [3]: 0.0548; optical density at 475 nm [4]: 0.0550; optical density at 475 nm [5]: 0.0550; optical density at 475 nm [6]: 0.0555; optical density at 475 nm [7]: 0.0557; optical density at 475 nm [8]: 0.0561; optical density at 475 nm [9]: 0.0563; % inhib (percentage of inhibition of the formation of the coloured product) (test compound 100 μM): 82%

Q: Which results are given for O=c1cc(CO)occ1O [Kojic acid, kojic acid, reference compound]?
A: inhibiting the development of the colour (result in words): does not make it possible to inhibit the development of the colour; inhibiting the development of the colour (result in words) (listed as kojic acid): without effect; optical density at 475 nm [1]: 0.0599; optical density at 475 nm [2]: 0.0614; optical density at 475 nm [3]: 0.0646; optical density at 475 nm [4]: 0.0698; optical density at 475 nm [5]: 0.0741; optical density at 475 nm [6]: 0.0804; optical density at 475 nm [7]: 0.0837; optical density at 475 nm [8]: 0.0845; optical density at 475 nm [9]: 0.0843; % inhib (percentage of inhibition of the formation of the coloured product) (test compound 100 μM): −1%

Q: What does the source list for CCCCc1ccc(O)cc1O [Lucinol, 4-butylresorcinol, reference compound]?
A: inhibiting the development of the colour (result in words): does not make it possible to inhibit the development of the colour; inhibiting the development of the colour (result in words) (listed as lucinol): without effect; optical density at 475 nm [1]: 0.0552; optical density at 475 nm [2]: 0.0563; optical density at 475 nm [3]: 0.0591; optical density at 475 nm [4]: 0.0629; optical density at 475 nm [5]: 0.0671; optical density at 475 nm [6]: 0.0730; optical density at 475 nm [7]: 0.0758; optical density at 475 nm [8]: 0.0768; optical density at 475 nm [9]: 0.0765; % inhib (percentage of inhibition of the formation of the coloured product) (test compound 100 μM): 0%
